Values after ≈ are worked out from the molar mass of the structure shown. Like-named read-outs stand apart in the source and are kept apart here.
Tests used:
Assay type in all cases: cell-based
[1] = test system: C. albicans; assay: In vitro antimycotic activity, MIC, C. albicans; details: for MIC: Candida albicans
Method: (§1) A laboratory propagated strain of C. albicans, originally isolated from an infected skin lesion of a patient, was grown in Mueller-Hinton broth for 18 hours at 35° C. Plates were then seeded with the broth culture and allowed to air-dry at room temperature (22° C.) for about 10-15 minutes. Forty lambda of the 2% aqueous solutions or of serial half-step dilutions in water were then pipetted onto the seeded Mueller-Hinton agar plates. The plates were then incubated for 24 hours at 35° C. and zones of inhibition were then recorded. The Minimum Inhibitory Concentration (MIC) was the lowest concentration of the test material which produced a zone of inhibition against the organism. The MIC for each test material (antihistamine) is listed in the enclosed table. Table 2 lists the MIC's against C. albicans while Table 3 lists the MIC's against in vitro-grown spores of the human pathogen T. mentagrophytes. This strain was isolated from a human infection and was grown on Sabourand-Dextrose agar for 2 weeks. The spores were collected by flooding the agar plates after the 2 week growth period with a 0.01% solution of Tween-80 (sorbitol ester) and then filtering the Tween solution through gauze mesh to collect the suspension of spores. Sabourand-Dextrose agar plates are then seeded with the spore suspension. After air-drying, 40 lambda of each test solution is pipetted onto the plates and the plates left to incubate for 4 days at 22° C.

[2] = test system: Spores of T. Mentagrophytes; assay: In vitro antimycotic activity, MIC, spores of T. mentagrophytes; details: for MIC: Trichophyton mentagrophytes, 96 h; for activity against T. mentagrophytes: in vitro, in words
Method: as §1

[3] = test system: Cutaneous Bacteria; assay: In vitro zone of inhibition screening, overall (cutaneous bacteria); details: for Rank Order: highest inhibition (rank 1) to lowest (rank 5); for minimum inhibitory concentrations as low as: in vitro antibacterial testing, lowest MIC
Method: (§2) The 2% solutions listed above were diluted further with sterile water, using serial half-step dilutions. Forty lambda of each were then pipetted onto seeded Mueller-Hinton agar plates. The agar plates were then incubated for 24 hours at 35° C. and zones of inhibition were then recorded. The Minimum Inhibitory Concentration (MIC) was the lowest concentration of the test material which produced a zone of inhibition against the organism.
(§3) Stock cutaneous strains of each organism were grown in Mueller-Hinton broth for 18 hours at 35° C. Plates were seeded with the 18 hour broth culture, allowed to air dry at room temperature (about 10 minutes) and then used for determination of zones of inhibition as outlined above.

[4] = test system: Escherichia coli; assay: In vitro zone of inhibition screening, MIC, Escherichia coli; details: for MIC: Escherichia coli
Method: as §2, §3

[5] = test system: Corenybacterium minutissimum; assay: In vitro zone of inhibition screening, MIC, Corenybacterium minutissimum
Method: as §2, §3

[6] = test system: Micrococcus luteous; assay: In vitro zone of inhibition screening, MIC, Micrococcus luteous; details: aqueous solution, seeded Mueller-Hinton agar, 24 hours at 35° C.; for MIC: Micrococcus, read-out: Minimum Inhibitory Concentration, ML
Method: as §2, §3

[7] = test system: Pseudomonas aeroginosa; assay: In vitro zone of inhibition screening, MIC, Pseudomonas aeroginosa; details: for MIC: Pseudomonas
Method: as §2, §3

[8] = test system: Staphylococcus aureus; assay: In vitro zone of inhibition screening, MIC, Staphylococcus aureus; details: aqueous solution, seeded Mueller-Hinton agar, 24 hours at 35° C.; for MIC: Staphylococcus aureus, read-out: Minimum Inhibitory Concentration, SA
Method: as §2, §3

[9] = aqueous solution, Mueller-Hinton agar, 24 hours at 35° C.
[10] = aqueous solution, Sabourand-Dextrose agar, 4 days at 22° C.
[11] = aqueous solution, seeded Mueller-Hinton agar, 24 hours at 35° C., read-out: Minimum Inhibitory Concentration, EC
[12] = aqueous solution, Sabourand-Dextrose agar, 4 days at 22° C., read-out: MIC, spores of T. Mentagrophytes
[13] = aqueous solution, seeded Mueller-Hinton agar, 24 hours at 35° C., read-out: Minimum Inhibitory Concentration, CM
[14] = aqueous solution, seeded Mueller-Hinton agar, 24 hours at 35° C.
[15] = aqueous solution, Mueller-Hinton agar, 24 hours at 35° C., read-out: MIC, C. albicans
[16] = aqueous solution, seeded Mueller-Hinton agar, 24 hours at 35° C., read-out: Minimum Inhibitory Concentration, PA

Compound | MIC, C. albicans [1, 9] | MIC, spores of T. Mentagrophytes [2, 10] | MIC [2, 12] | MIC [1, 15] | Rank Order [3] | MIC [4, 11] | activity against T. mentagrophytes [2] | MIC [5, 13] | minimum inhibitory concentrations as low as [3] | MIC [6] | MIC [7, 16] | MIC [8] | other results
CN(C)CCOC(C)(c1ccccc1)c1ccccn1 (stereo not shown) [Doxylamine] | No inhibition | No inhibition | – | – | 5 | – | – | – | – | – | – | – | –
CN(C)CCOC(c1ccccc1)c1ccccc1 [Dimenhydrinate, dimenhydrinate] | 20000 µg/mL (≈ 78.3 mM) | 20000 µg/mL | – | – | 3 | – | – | – | 0.5% | – | – | – | Minimum Inhibitory Concentration, ML [6]: 10.0 mg/mL; Minimum Inhibitory Concentration, EC [4, 14]: 5.0 mg/mL; Minimum Inhibitory Concentration, PA [7, 14]: 10.0 mg/mL; Minimum Inhibitory Concentration, CM [5, 14]: 5.0 mg/mL; Minimum Inhibitory Concentration, SA [8]: 10.0 mg/mL
CN(C)CCC(c1ccc(Br)cc1)c1ccccn1 (stereo not shown) [Brompheniramine, brompheniramine] | – | – | 20000 µg/mL (≈ 62.6 mM) | 20000 µg/mL (≈ 62.6 mM) | 2 | 5000 µg/mL (≈ 15.7 mM) | – | 3000 µg/mL (≈ 9.4 mM) | 0.5-1% | 5000 µg/mL (≈ 15.7 mM) | 10000 µg/mL (≈ 31.3 mM) | 10000 µg/mL (≈ 31.3 mM) | –
CN(C)CCOC(c1ccccc1)c1ccccc1 [Diphenhydramine, diphenhydramine] | – | – | – | – | 1 | – | – | – | 0.25% | – | – | – | Minimum Inhibitory Concentration, ML [6]: 2.5 mg/mL; MIC ([4]; 24 h, read-out: Minimum Inhibitory Concentration, EC, aqueous solution, seeded Mueller-Hinton agar, 24 hours at 35° C.): 2500 µg/mL (≈ 9.79 mM); MIC ([1]; 24 h, read-out: MIC, C. albicans, aqueous solution, Mueller-Hinton agar, 24 hours at 35° C.): 10000 µg/mL (≈ 39.2 mM); MIC ([2]; read-out: MIC, spores of T. Mentagrophytes, aqueous solution, Sabourand-Dextrose agar, 4 days at 22° C.): 10000 µg/mL (≈ 39.2 mM); MIC ([7]; 24 h, read-out: Minimum Inhibitory Concentration, PA, aqueous solution, seeded Mueller-Hinton agar, 24 hours at 35° C.): 5000 µg/mL (≈ 19.6 mM); MIC ([5]; 24 h, read-out: Minimum Inhibitory Concentration, CM, aqueous solution, seeded Mueller-Hinton agar, 24 hours at 35° C.): 2500 µg/mL (≈ 9.79 mM); Minimum Inhibitory Concentration, SA [8]: 2.5 mg/mL
CN(C)CCC(c1ccc(Cl)cc1)c1ccccn1 (stereo not shown) [Chlorpheniramine, chlorpheniramine] | – | No inhibition | – | 20000 µg/mL (≈ 72.8 mM) | 2 | 5000 µg/mL (≈ 18.2 mM) | ineffective | 5000 µg/mL (≈ 18.2 mM) | – | 5000 µg/mL (≈ 18.2 mM) | 10000 µg/mL (≈ 36.4 mM) | 10000 µg/mL (≈ 36.4 mM) | –

Further lines, with some results ahead:

MIC, C. albicans [1, 9] | MIC, spores of T. Mentagrophytes [2, 10] | MIC [2, 12] | MIC [1, 15] | Compound | Rank Order [3] | MIC [4, 11] | activity against T. mentagrophytes [2] | MIC [5, 13] | minimum inhibitory concentrations as low as [3] | MIC [6] | MIC [7, 16] | MIC [8] | other results
No inhibition | – | 20000 µg/mL (≈ 70.1 mM) | – | COc1ccc(CN(CCN(C)C)c2ccccn2)cc1 [Pyrilamine] | 4 | 10000 µg/mL (≈ 35 mM) | showed activity | 10000 µg/mL (≈ 35 mM) | – | – | – | – | –
– | – | 20000 µg/mL (≈ 78.3 mM) | 20000 µg/mL (≈ 78.3 mM) | CN(C)CCN(Cc1ccccc1)c1ccccn1 [Tripelennamine, tripelennamine] | 3 | 5000 µg/mL (≈ 19.6 mM) | – | 5000 µg/mL (≈ 19.6 mM) | 0.5-1% | 10000 µg/mL (≈ 39.2 mM) | 10000 µg/mL (≈ 39.2 mM) | 10000 µg/mL (≈ 39.2 mM) | –
– | No inhibition | – | 20000 µg/mL (≈ 71.8 mM) | Cc1ccc(/C(=C\CN2CCCC2)c2ccccn2)cc1 [Triprolidine, triprolidine] | 3 | 5000 µg/mL (≈ 18 mM) | ineffective | 5000 µg/mL (≈ 18 mM) | 0.5-1% | 10000 µg/mL (≈ 35.9 mM) | 10000 µg/mL (≈ 35.9 mM) | 10000 µg/mL (≈ 35.9 mM) | –
